Columns and labels:
[1] = target: T1, recombinant human ALK5 (TGF-βR1) protein (Homo sapiens, UniProt P36897); assay: Biochemical ALK5 (TGF-βR1) assay to measure pKi (LANCE Ultra ULight kinase assay); settings: apparent pKi, converted from pIC50 by Cheng-Prusoff
T1 construct: purchased Life Technologies PR9075A
T1 sequence (P36897 34-503): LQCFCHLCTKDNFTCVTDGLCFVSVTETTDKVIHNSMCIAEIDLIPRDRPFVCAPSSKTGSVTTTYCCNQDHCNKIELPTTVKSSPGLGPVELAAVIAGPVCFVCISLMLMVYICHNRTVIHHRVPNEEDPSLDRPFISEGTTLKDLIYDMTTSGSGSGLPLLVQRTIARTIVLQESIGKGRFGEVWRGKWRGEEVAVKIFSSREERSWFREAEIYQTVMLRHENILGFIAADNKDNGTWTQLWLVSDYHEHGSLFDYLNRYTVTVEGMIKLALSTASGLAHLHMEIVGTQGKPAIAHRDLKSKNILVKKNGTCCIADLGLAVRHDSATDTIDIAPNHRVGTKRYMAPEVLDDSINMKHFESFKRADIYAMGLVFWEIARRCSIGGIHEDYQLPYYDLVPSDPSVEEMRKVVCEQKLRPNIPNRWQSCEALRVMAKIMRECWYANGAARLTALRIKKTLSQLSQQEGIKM
Summary of the method: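 Enzyme preincubated with compound for 60 min at room temperature, then reacted with ATP (125 μM as 5× stock) for 60 min at 37 °C. Stopped with EDTA plus Eu-anti-phospho-Topoisomerase 2-alpha (Thr1342) antibody and read by TR-FRET at 665 nm. pIC50 from a 4-parameter fit, converted to pKi by Cheng-Prusoff.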

[2] = tested on: TGF-β-stimulated SMAD3 phosphorylation in BEAS-2B cells; assay: Cellular ALK5 potency assay, inhibition of TGF-β stimulated pSMAD3 formation in BEAS-2B cells; type: cell-based; settings: Homo sapiens, pSMAD3, TGF-β 10 ng/mL, read-out: BEAS2B pIC50 (converted)
Summary of the method: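 Human lung epithelial BEAS-2B cells were pre-treated with compound for 1 h at 37 °C, then stimulated with TGF-β (final 10 ng/mL) for 30 min before lysis. pSMAD3 was quantified by AlphaLISA and pIC50 derived from dose-dependent signal change versus TGF-β-stimulated untreated cells.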

Compound | Ki [1] | IC50 [2]
Cc1cccc(-c2nccc(Nc3ccnc(Nc4cncc(CN5CC(C(=O)OC6CCNCC6)C5)c4)n3)n2)n1 [Compound 565, 4-piperidyl 1-[[5-[[4-[[2-(6-methyl-2-pyridyl)pyrimidin-4-yl]amino]pyrimidin-2-yl]amino]-3-pyridyl]methyl]azetidine-3-carboxylate] | 0.0398 to 0.316 nM | 25.1 to 158 nM
Cc1cccc(-c2nccc(Nc3ccnc(Nc4csc(C(=O)O[C@H]5CC[C@@](C)(N)CC5)c4)n3)n2)n1 [Compound 566, (4-amino-4-methyl-cyclohexyl) 4-[[4-[[2-(6-methyl-2-pyridyl)pyrimidin-4-yl]amino]pyrimidin-2-yl]amino]thiophene-2-carboxylate] | 0.0398 to 0.316 nM | 25.1 to 158 nM
Cc1cccc(-c2nccc(Nc3ccnc(Nc4ccc(C(=O)O[C@@H]5CC[C@@H](C)NC5)nc4)n3)n2)n1 [Compound 567, [(3R,6R)-6-methyl-3-piperidyl] 5-[[4-[[2-(6-methyl-2-pyridyl)pyrimidin-4-yl]amino]pyrimidin-2-yl]amino]pyridine-2-carboxylate] | 0.0398 to 0.316 nM | 25.1 to 158 nM
Cc1cccc(-c2nccc(Nc3ccnc(Nc4csc(C(=O)OCCN5CC[C@@H](N)C5)c4)n3)n2)n1 [Compound 568, 2-[(3R)-3-aminopyrrolidin-1-yl]ethyl 4-[[4-[[2-(6-methyl-2-pyridyl)pyrimidin-4-yl]amino]pyrimidin-2-yl]amino]thiophene-2-carboxylate] | 0.0398 to 0.316 nM | 25.1 to 158 nM
Cc1cccc(-c2nccc(Nc3ccnc(Nc4ccc(CN5CC(C(=O)O)C5)nc4)n3)n2)n1 [Compound 569, 1-[[5-[[4-[[2-(6-methyl-2-pyridyl)pyrimidin-4-yl]amino]pyrimidin-2-yl]amino]-2-pyridyl]methyl]azetidine-3-carboxylic acid] | 0.0398 to 0.316 nM | 200 to 1260 nM
Cc1cccc(-c2nccc(Nc3ccnc(Nc4cncc(C(=O)OC[C@@H]5CCNC5)c4)n3)n2)n1 [Compound 570, [(3R)-pyrrolidin-3-yl]methyl 5-[[4-[[2-(6-methyl-2-pyridyl)pyrimidin-4-yl]amino]pyrimidin-2-yl]amino]pyridine-3-carboxylate] | 0.398 to 3.16 nM | 25.1 to 158 nM
Cc1cccc(-c2nccc(Nc3ccnc(Nc4nc(C5=CCNCC5)cs4)n3)n2)n1 [Compound 571, N4-[2-(6-methyl-2-pyridyl)pyrimidin-4-yl]-N2-[4-(1,2,3,6-tetrahydropyridin-4-yl)thiazol-2-yl]pyrimidine-2,4-diamine] | 0.0398 to 0.316 nM | ≤ 20 nM
Cc1cccc(-c2nccc(Nc3ccnc(Nc4csc(C(=O)O[C@H]5CC[C@](C)(N)CC5)c4)n3)n2)n1 [Compound 572, (4-amino-4-methyl-cyclohexyl) 4-[[4-[[2-(6-methyl-2-pyridyl)pyrimidin-4-yl]amino]pyrimidin-2-yl]amino]thiophene-2-carboxylate] | 0.0398 to 0.316 nM | 25.1 to 158 nM
Cc1cccc(-c2nccc(Nc3ccnc(Nc4cncc(CN5CC(C(=O)O[C@H]6CCNC6)C5)c4)n3)n2)n1 [Compound 573, [(3S)-pyrrolidin-3-yl] 1-[[5-[[4-[[2-(6-methyl-2-pyridyl)pyrimidin-4-yl]amino]pyrimidin-2-yl]amino]-3-pyridyl]methyl]azetidine-3-carboxylate] | 0.0398 to 0.316 nM | 25.1 to 158 nM
Cc1cccc(-c2nccc(Nc3ccnc(Nc4ccc(C(=O)O[C@@H]5CCNC5)cn4)n3)n2)n1 [Compound 574, [(3R)-pyrrolidin-3-yl] 6-[[4-[[2-(6-methyl-2-pyridyl)pyrimidin-4-yl]amino]pyrimidin-2-yl]amino]pyridine-3-carboxylate] | 3.98 to 31.6 nM | 200 to 1260 nM
Cc1cccc(-c2nccc(Nc3ccnc(Nc4ccc(C(=O)O[C@H]5CCNC5)cn4)n3)n2)n1 [Compound 575, [(3S)-pyrrolidin-3-yl] 6-[[4-[[2-(6-methyl-2-pyridyl)pyrimidin-4-yl]amino]pyrimidin-2-yl]amino]pyridine-3-carboxylate] | 3.98 to 31.6 nM | 200 to 1260 nM
CC(=O)N1CC(COC(=O)c2cc(Nc3nccc(Nc4ccnc(-c5cccc(C)n5)n4)n3)cs2)C1 [Compound 576, (1-acetylazetidin-3-yl)methyl 4-[[4-[[2-(6-methyl-2-pyridyl)pyrimidin-4-yl]amino]pyrimidin-2-yl]amino]thiophene-2-carboxylate] | 0.0398 to 0.316 nM | 25.1 to 158 nM
Cc1cccc(-c2nccc(Nc3ccnc(Nc4ccc(C(=O)OC[C@H]5CCCN5)nc4)n3)n2)n1 [Compound 577, [(2R)-pyrrolidin-2-yl]methyl 5-[[4-[[2-(6-methyl-2-pyridyl)pyrimidin-4-yl]amino]pyrimidin-2-yl]amino]pyridine-2-carboxylate] | 0.0398 to 0.316 nM | 25.1 to 158 nM
Cc1cccc(-c2nccc(Nc3ccnc(Nc4ncc(C(=O)OC[C@H]5CCCCN5)s4)n3)n2)n1 [Compound 578, [(2R)-2-piperidyl]methyl 2-[[4-[[2-(6-methyl-2-pyridyl)pyrimidin-4-yl]amino]pyrimidin-2-yl]amino]thiazole-5-carboxylate] | 3.98 to 31.6 nM | 200 to 1260 nM
Cc1cccc(-c2nccc(Nc3ccnc(Nc4cc(C(=O)OC5CNC5)ccn4)n3)n2)n1 [Compound 579, azetidin-3-yl 2-[[4-[[2-(6-methyl-2-pyridyl)pyrimidin-4-yl]amino]pyrimidin-2-yl]amino]pyridine-4-carboxylate] | 3.98 to 31.6 nM | 25.1 to 158 nM
Cc1cccc(-c2nccc(Nc3ccnc(Nc4nc(C(=O)OC[C@@H]5CCCNC5)cs4)n3)n2)n1 [Compound 580, [(3R)-3-piperidyl]methyl 2-[[4-[[2-(6-methyl-2-pyridyl)pyrimidin-4-yl]amino]pyrimidin-2-yl]amino]thiazole-4-carboxylate] | 0.398 to 3.16 nM | 200 to 1260 nM
Cc1cccc(-c2nccc(Nc3ccnc(Nc4ccc(C(=O)OCCN5CCNCC5)cn4)n3)n2)n1 [Compound 581, 2-piperazin-1-ylethyl 6-[[4-[[2-(6-methyl-2-pyridyl)pyrimidin-4-yl]amino]pyrimidin-2-yl]amino]pyridine-3-carboxylate] | 3.98 to 31.6 nM | 25.1 to 158 nM
Cc1cccc(-c2nccc(Nc3ccnc(Nc4ccc(C(=O)OC[C@H]5CCNC5)nc4)n3)n2)n1 [Compound 582, [(3S)-pyrrolidin-3-yl]methyl 5-[[4-[[2-(6-methyl-2-pyridyl)pyrimidin-4-yl]amino]pyrimidin-2-yl]amino]pyridine-2-carboxylate] | 0.0398 to 0.316 nM | 25.1 to 158 nM
Cc1cccc(-c2nccc(Nc3ccnc(Nc4csc(C(=O)OC[C@H]5CCCN5)c4)n3)n2)n1 [Compound 583, [(2R)-pyrrolidin-2-yl]methyl 4-[[4-[[2-(6-methyl-2-pyridyl)pyrimidin-4-yl]amino]pyrimidin-2-yl]amino]thiophene-2-carboxylate] | 0.0398 to 0.316 nM | 25.1 to 158 nM
Cc1cccc(-c2nccc(Nc3ccnc(Nc4ccc(C(=O)OC[C@@H]5CCNC5)nc4)n3)n2)n1 [Compound 584, [(3R)-pyrrolidin-3-yl]methyl 5-[[4-[[2-(6-methyl-2-pyridyl)pyrimidin-4-yl]amino]pyrimidin-2-yl]amino]pyridine-2-carboxylate] | 0.0398 to 0.316 nM | 25.1 to 158 nM
Cc1cccc(-c2nccc(Nc3ccnc(Nc4csc(C(=O)O)n4)n3)n2)n1 [Compound 585, 4-[[4-[[2-(6-methyl-2-pyridyl)pyrimidin-4-yl]amino]pyrimidin-2-yl]amino]thiazole-2-carboxylic acid] | 3.98 to 31.6 nM | 200 to 1260 nM
Cc1cccc(-c2nccc(Nc3ccnc(Nc4nc(C(=O)OC[C@H]5CCCCN5)cs4)n3)n2)n1 [Compound 586, [(2R)-2-piperidyl]methyl 2-[[4-[[2-(6-methyl-2-pyridyl)pyrimidin-4-yl]amino]pyrimidin-2-yl]amino]thiazole-4-carboxylate] | 0.398 to 3.16 nM | 25.1 to 158 nM
Cc1cccc(-c2nccc(Nc3ccnc(Nc4ccc(C(=O)OCC5CCNCC5)nc4)n3)n2)n1 [Compound 587, 4-piperidylmethyl 5-[[4-[[2-(6-methyl-2-pyridyl)pyrimidin-4-yl]amino]pyrimidin-2-yl]amino]pyridine-2-carboxylate] | 0.0398 to 0.316 nM | 25.1 to 158 nM
Cc1cccc(-c2nccc(Nc3ccnc(Nc4csc(C(=O)OC[C@H]5CCCCN5)c4)n3)n2)n1 [Compound 588, [(2R)-2-piperidyl]methyl 4-[[4-[[2-(6-methyl-2-pyridyl)pyrimidin-4-yl]amino]pyrimidin-2-yl]amino]thiophene-2-carboxylate] | 0.0398 to 0.316 nM | 25.1 to 158 nM
Cc1cccc(-c2nccc(Nc3ccnc(Nc4ccc(C(=O)OCCN5C[C@@H](C)N[C@@H](C)C5)nc4)n3)n2)n1 [Compound 589, 2-[(3R,5S)-3,5-dimethylpiperazin-1-yl]ethyl 5-[[4-[[2-(6-methyl-2-pyridyl)pyrimidin-4-yl]amino]pyrimidin-2-yl]amino]pyridine-2-carboxylate] | 0.398 to 3.16 nM | 25.1 to 158 nM

Source: US20230399312A1, “SUBSTITUTED PYRIMIDINES AND METHODS OF USE” (THERAVANCE BIOPHARMA R&D IP, LLC, priority 2020, published 2023)
